This note sets out measurements from patent US7435820B2, “Substituted tetrahydro-1H-pyrazolo [3,4-c]pyridines compositions comprising them, and use” (Aventis Pharma S.A., priority 2003, dated 2008).

Like-named read-outs stand apart in the source and are kept apart here.

In experiment [1] the target is T1, human Tie2 (Homo sapiens, UniProt Q02763).
T1 construct: human Tie2 corresponding to amino acids 776-1124 of the intracellular domain was generated by PCR; made in house; host or cells: baculovirus expression system (vector pFastBacGT)
As to the kind of experiment: Tie2 kinase inhibition: phosphorylation of GST-PLC (SH2-SH3 fragments) by GST-Tie2, 33P-ATP flashplate. Particulars: for Tie2 % Inhib at 10 μM (FRX) Assay 1: Assay 1, 10 µM; for Tie2 % Inhib at 10 μM (FRX) Assay 2: Assay 2, 10 µM. It counts as biochemical. As to the method: The coding sequence of human Tie2 corresponding to amino acids 776-1124 of the intracellular domain was generated by PCR using the cDNA isolated from human placenta as model. This sequence was introduced into a baculovirus expression vector pFastBacGT in the form of a GST fusion protein.
The inhibitory effect of the molecules is determined in an assay for phosphorylation of PLC by Tie2 in the presence of GST-Tie2 purified to approximately 80% homogeneity. The substrate is made up of the SH2-SH3 fragments of PLC, the latter being expressed in the form of a GST fusion protein.
The kinase activity of Tie2 is measured in a 20 mM MOPS buffer, pH 7.2, containing 10 mM MgCl2, 10 mM MnCl2, 1 mM DTT and 10 mM of glycerophosphate. A reaction mixture made up of 70 μl of kinase buffer containing 100 ng of GST-Tie2 enzyme per well is placed in a flashplate 96-well plate kept on ice. 10 μl of the molecule to be tested, diluted in DMSO, at a concentration of at most 10% are then added. For a given concentration, each measurement is carried out in quadruplicate. The reaction is initiated by adding 20 μl of solution containing 2 μg of GST-PLC, 2 μM of cold ATP and 1 μCi of ^33P[ATP]. After incubation for 1 hour at 37° C., the reaction is stopped by adding 1 volume (100 μl) of 200 mM EDTA. After removal of the incubation buffer, the wells are washed three times with 300 μl of PBS. The radioactivity is measured on a Wallac MicroBeta 1450.
The inhibition of the Tie2 activity is calculated and expressed as percentage inhibition with respect to the control activity determined in the absence of compound.

In experiment [2] the target is T2, human KDR enzyme (Homo sapiens, UniProt P35968).
T2 construct: The cytoplasmic domain of the human KDR enzyme was cloned in GST fusion form; GST; made in house; host or cells: SF21 insect cells (baculovirus, pFastBac)
Nature of the experiment: KDR kinase inhibition: phosphorylation of PLCγ SH2-SH3 substrate by KDR enzyme, 33P-ATP scintillation plate. It counts as biochemical. As to the method: The inhibitory effect of the compounds is determined in an assay for phosphorylation of substrate by the KDR enzyme in vitro using a scintillation technique (96-well plate, NEN).
The cytoplasmic domain of the human KDR enzyme was cloned in GST fusion form into the baculovirus expression vector pFastBac. The protein was expressed in SF21 cells and purified to approximately 60% homogeneity. The KDR kinase activity is measured in 20 mM MOPS, 10 mM MgCl2, 10 mM MnCl2, 1 mM DTT, 2.5 mM EGTA, 10 mM b-glycerophosphate, pH=7.2, in the presence of 10 mM MgCl2, 100 μM Na3VO4 and 1 mM NaF. 10 μl of the compound are added to 70 μl of kinase buffer containing 100 ng of KDR enzyme at 4° C. The reaction is initiated by adding 20 μl of solution containing 2 μg of substrate (SH2-SH3 fragment of PLCγ expressed in the form of an GST fusion protein), 2 μCi γ ^33P[ATP] and 2 μM cold ATP. After incubation for 1 hour at 37° C., the reaction is stopped by adding 1 volume (100 μl) of 200 mM EDTA. The incubation buffer is removed and the wells are washed three times with 300 μl of PBS. The radioactivity is measured in each well using a Top Count NXT (Packard) radioactivity counter.
The background noise is determined by measuring the radioactivity in four different wells containing the radioactive ATP and the substrate alone.
A total activity control is measured in four different wells containing all the reagents (γ^33P-[ATP], KDR and PLC-γ substrate) but in the absence of compound.
The inhibition of the KDR activity with the compound of the invention is expressed as percentage inhibition of the control activity determined in the absence of compound.
The compound SU5614 (Calbiochem) (1 μM) is included in each plate as inhibition control.

The mark [3] stands for this setting: Assay 1, read-out: Tie2 % Inhib at 10 μM (FRX) Assay 1.
The mark [4] stands for this setting: Assay 2, read-out: Tie2 % Inhib at 10 μM (FRX) Assay 2.
Where [5] appears, read: Assay 1, read-out: KDR % Inhib at 10 μM Assay 1.
[6] abbreviates: Assay 2, read-out: KDR % Inhib at 10 μM Assay 2.

T1 sequence (Q02763 776-1124): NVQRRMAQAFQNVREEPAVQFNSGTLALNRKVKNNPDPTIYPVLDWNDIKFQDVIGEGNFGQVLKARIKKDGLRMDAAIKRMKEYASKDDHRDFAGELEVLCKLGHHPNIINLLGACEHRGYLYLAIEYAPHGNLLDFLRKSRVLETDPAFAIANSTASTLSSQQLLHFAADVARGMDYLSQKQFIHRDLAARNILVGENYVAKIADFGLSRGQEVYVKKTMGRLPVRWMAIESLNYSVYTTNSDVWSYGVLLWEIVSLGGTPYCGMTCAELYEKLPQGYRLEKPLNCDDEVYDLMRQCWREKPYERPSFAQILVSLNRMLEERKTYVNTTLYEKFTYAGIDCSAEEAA
T2 sequence (P35968 786-1356 limits assumed): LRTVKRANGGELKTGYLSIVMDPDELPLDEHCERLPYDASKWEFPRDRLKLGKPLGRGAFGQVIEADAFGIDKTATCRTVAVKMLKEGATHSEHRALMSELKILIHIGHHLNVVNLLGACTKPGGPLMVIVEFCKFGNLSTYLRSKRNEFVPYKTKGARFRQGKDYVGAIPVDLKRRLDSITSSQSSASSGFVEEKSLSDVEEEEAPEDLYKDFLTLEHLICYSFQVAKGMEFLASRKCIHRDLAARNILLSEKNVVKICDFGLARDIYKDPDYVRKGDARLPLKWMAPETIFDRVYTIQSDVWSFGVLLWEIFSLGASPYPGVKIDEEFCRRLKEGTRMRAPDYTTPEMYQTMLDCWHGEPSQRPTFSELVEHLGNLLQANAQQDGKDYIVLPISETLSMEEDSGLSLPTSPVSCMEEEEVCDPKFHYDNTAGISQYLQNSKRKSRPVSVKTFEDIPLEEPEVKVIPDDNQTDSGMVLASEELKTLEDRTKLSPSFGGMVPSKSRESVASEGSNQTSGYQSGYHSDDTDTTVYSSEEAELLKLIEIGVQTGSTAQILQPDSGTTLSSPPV

As to `Cc1cc2nc(-c3[nH]nc4c3CCN(C(=O)NCc3ccccc3)C4)[nH]c2cc1C` [Chemistry 60], the inhibition at 10 µM was 64.8% in experiment [1] (read-out: Tie2 % Inhib. 10 μM) and 33.5% in experiment [2] (read-out: KDR % Inhib. 10 μM).
For `Cc1cc2nc(-c3[nH]nc4c3CCN(C(=O)Nc3ccccc3Cl)C4)[nH]c2cc1C` [Chemistry 61] the same measures were 3.75% and 12.7%.
For `Cc1cc2nc(-c3[nH]nc4c3CCN(C(=O)Nc3cccc(Cl)c3)C4)[nH]c2cc1C` [Chemistry 62], the inhibition at 10 µM in experiment [1] (read-out: Tie2 % Inhib. 10 μM) was 21%; in experiment [2] (read-out: KDR % Inhib. 10 μM), 12.8%.
On to `Cc1cc2nc(-c3[nH]nc4c3CCN(C(=O)Nc3ccc(Cl)cc3)C4)[nH]c2cc1C` [Chemistry 63], for which the inhibition at 10 µM was 23.8% in experiment [1] (read-out: Tie2 % Inhib. 10 μM) and -0.3% in experiment [2] (read-out: KDR % Inhib. 10 μM).
For `CCCCNC(=O)N1CCc2c(n[nH]c2-c2nc3cc(C)c(C)cc3[nH]2)C1` [Chemistry 64] the same measures were 38.5% and 18%.
Take `Cc1cc2nc(-c3[nH]nc4c3CCN(C(=O)Nc3cccs3)C4)[nH]c2cc1C` [Chemistry 65]: the inhibition at 10 µM in experiment [1] (read-out: Tie2 % Inhib. 10 μM) was 85.9%; in experiment [2] (read-out: KDR % Inhib. 10 μM), 63.3%.
On to `COc1ccccc1NC(=O)N1CCc2c(n[nH]c2-c2nc3cc(C)c(C)cc3[nH]2)C1` [Chemistry 67], for which the inhibition at 10 µM in experiment [1] (read-out: Tie2 % Inhib. 10 μM) came to 18.1%; in experiment [2] (read-out: KDR % Inhib. 10 μM), 8.1%.
Turning to `Cc1cc2nc(-c3[nH]nc4c3CCN(C(=O)Nc3ccccc3C)C4)[nH]c2cc1C` [Chemistry 68], the inhibition at 10 µM in experiment [1] (read-out: Tie2 % Inhib. 10 μM) worked out at 19.1%; in experiment [2] (read-out: KDR % Inhib. 10 μM), 19.5%.
Turning to `O=C(c1cccnc1)N1CCc2c(n[nH]c2-c2nc3ccccc3[nH]2)C1` [Chemistry 69], the figures for the inhibition at 10 µM in experiment [1] (read-out: Tie2 % Inhib. 10 μM) and in experiment [2] (read-out: KDR % Inhib. 10 μM) were 59.3% and 18.6%, respectively.
For `Clc1cccc(CN2CCc3c(n[nH]c3-c3nc4ccccc4[nH]3)C2)c1` [Chemistry 70] the same measures were 65.5% and 92.1%.
As to `Cc1cc2nc(-c3[nH]nc4c3CCN(C(=O)c3ccccc3Nc3cccc(Cl)c3C)C4)[nH]c2cc1C` [Example P-31375-112-10], the inhibition at 10 µM in experiment [1] (setting [3]) was 90.6%; in experiment [1] (setting [4]), 87.9%; in experiment [2] (setting [5]), 42.3%; in experiment [2] (setting [6]), 28.7%.
As to `Cc1cc2nc(-c3[nH]nc4c3CCN(C(=O)c3ccccc3Nc3ccccc3)C4)[nH]c2cc1C` [Example P-31378-112-1], the inhibition at 10 µM in experiment [1] (setting [3]) turned out to be 83.1%; in experiment [1] (setting [4]) it was 88.1%; in experiment [2] (setting [5]), 96.5%; in experiment [2] (setting [6]) it was 96.7%.
In the case of `Cc1cc2nc(-c3[nH]nc4c3CCN(C(=O)c3ccccc3Nc3ccccc3)C4)[nH]c2cc1C` [Example P-31378-112-2], in experiment [1], the “Tie2 % Inhib at 10 μM (FRX) Assay 1” value amounted to 92.6% and the “Tie2 % Inhib at 10 μM (FRX) Assay 2” value was 92.6%. Also, in experiment [2], the “KDR % Inhib at 10 μM Assay 1” value came out at 98.1% and the “KDR % Inhib at 10 μM Assay 2” value is recorded as 97.4%.
Regarding `Cc1cc2nc(-c3[nH]nc4c3CCN(C(=O)c3ccccc3Nc3cccc(C(F)(F)F)c3)C4)[nH]c2cc1C` [Example P-31378-112-3], in experiment [1], the “Tie2 % Inhib at 10 μM (FRX) Assay 1” value came out at 78.7% and the “Tie2 % Inhib at 10 μM (FRX) Assay 2” value was 79.1%. Further, in experiment [2], the “KDR % Inhib at 10 μM Assay 1” value is on record as 59.0% and the “KDR % Inhib at 10 μM Assay 2” value came to 56.5%.
Regarding `Cc1cc2nc(-c3[nH]nc4c3CCN(C(=O)c3ccccc3Nc3cccc(C(F)(F)F)c3)C4)[nH]c2cc1C` [Example P-31378-112-4], the inhibition at 10 µM in experiment [1] (setting [3]) was determined as 83.1%; in experiment [1] (setting [4]), 87.2%; in experiment [2] (setting [5]), 56.2%; in experiment [2] (setting [6]) it was 50.1%.
Consider `Cc1cc2nc(-c3[nH]nc4c3CCN(C(=O)c3ccccc3Oc3ccccc3)C4)[nH]c2cc1C` [Example P-31378-112-5], for which the inhibition at 10 µM in experiment [1] (setting [3]) amounted to 87.1%; in experiment [1] (setting [4]), 86.4%; in experiment [2] (setting [5]), 94.7%; in experiment [2] (setting [6]) it was 95.4%.
For `Cc1cc2nc(-c3[nH]nc4c3CCN(C(=O)c3ccccc3Cc3ccccc3)C4)[nH]c2cc1C` [Example P-31378-112-6] the same measures were 92.7%, 93.8%, 71.4% and 68%.
For `Cc1cc2nc(-c3[nH]nc4c3CCN(C(=O)c3ccccc3CCc3ccccc3)C4)[nH]c2cc1C` [Example P-31378-112-7] the same measures were 92.7%, 92%, 68.6% and 64.3%.
For `Cc1cc2nc(-c3[nH]nc4c3CCN(C(=O)c3ccccc3NCc3ccccc3)C4)[nH]c2cc1C` [Example P-31378-112-8] the same measures were 87.8%, 93.3%, 86.8% and 89%.
`Cc1cc2nc(-c3[nH]nc4c3CCN(C(=O)c3ccccc3OCc3ccccc3)C4)[nH]c2cc1C` [Example P-31378-112-9]: the inhibition at 10 µM turned out to be 82.6% in experiment [1] (setting [3]), 85.9% in experiment [1] (setting [4]), 53.2% in experiment [2] (setting [5]) and 45.1% in experiment [2] (setting [6]).
For `Cc1cc2c(cc1C)NC(c1[nH]nc3c1CCN(C(=O)c1ccc(C)c([N+](=O)[O-])c1)C3)N2` [Example P-31378-112-14] the same measures were 69.7%, 73.8%, 19.5% and 13%.
In the same order, the values of `Cc1cc2nc(-c3[nH]nc4c3CCN(C(=O)c3ccccc3NC(=O)c3ccc(Cl)cc3)C4)[nH]c2cc1C` [Example P-31378-112-15] are 80.1%, 83.8%, 75.5% and 77.4%.
For `Cc1cc2nc(-c3[nH]nc4c3CCN(C(=O)c3ccccc3NCc3ccco3)C4)[nH]c2cc1C` [Example P-31378-112-16] the same measures were 88.7%, 88.3%, 90.2% and 89.1%.
